Columns and labels:
AML cells = assay: Cell death by Annexin V flow cytometry; assay type: cell-based, human
Procedure: Cell Cycle and Apoptosis. To assess cell cycle, we performed the 5-ethynyl-2′-deoxyuridine (EdU) incorporation assay using the Click-iT Plus EdU Alexa Fluor 647 kit as described in manufacturer's protocol (Life Technologies). Apoptosis analysis was determined using APC Annexin V (BD Bioscience) and 4′,6-Diamidino-2-Phenylindole, Dihydrochloride (DAPI) for DNA content. Both EdU and Annexin V stained cells were analyzed by flow cytometry and FlowJo software.

[1] = system: mouse AML cell line RN2 (MLL-AF9; Kras)
Procedure: ZIP model was used to calculate the delta-score of synergisms of the combination treatments. […] ZIP model was used to calculate the delta-score of synergisms of the combination treatments. […] ZIP model was used to calculate the delta-score of synergisms of the combination treatments.
Drug Treatment and IC50 Measurements. Cells were plated in 96-well plates and exposed to Venetoclax at concentrations ranging from 0.4 nM to 300 nM (for MOLM-13 and MV4-11), 150 nM to 10 μM (for Venetoclax-resistant cell lines and THP-1) with a minimum of three technical replicates per concentration per cell line. Cell viability was measured with the CellTiter-Glo reagent (Promega) according to manufacturer's instructions. Absolute viability values were converted to percentage viability versus DMSO control treatment, and then non-linear fit of log(inhibitor) versus response (three parameters) was performed in GraphPad Prism v7.0 to obtain the IC50 values. For Venetoclax and Azacitidine combined treatment, two drugs were mixed at the fixed ratio (Ven:Aza=1:4) before diluting to certain concentrations.

[2] = system: human AML cell lines (MOLM-13, MV4-11, THP-1, KASUMI-1); assay: Venetoclax/drug IC50 by CellTiter-Glo in sgRNA-transduced AML cell lines; assay type: cell-based; details: for Synergistic effect of CLPB ablation with the drug: MOLM-13 and MV4-11 with sgCLPB or sgRosa, 48 hrs
Description: (§1) Drug Treatment and IC50 Measurements.

[3] = system: AML cells (THP-1, MOLM-13); assay: Western blotting of AML cell lysates after drug treatment; assay type: cell-based, human; details: for CLPB protein levels in cells surviving drug treatment: MOLM-13, Venetoclax (IC50) 10 days, Idarubicin 10 nM 2 days
Procedure: Biochemistry. Protein lysis was performed with RIPA buffer (Thermo Fisher Scientific) in presence of proteases inhibitor cocktail (PIC, Sigma) for 30 min at 4° C. After centrifugation at maximal speed for 20 min, supernatants were collected and protein concentration was determined using Bradford reagent (Bio-Rad).
Protein lysates (25-30 μg) were loaded onto 4%-12% Bis-Tris or 3%-8% Tris-acetate polyacrylamide gels (Thermo Fisher Scientific), transferred onto PVDF membranes (Millipore) and probed using the following antibodies: anti-CLPB polyclonal (1:2000, Proteintech, Cat #15743-1-AP), anti-TFAM (1:500, Santa Cruz, Cat #sc-376672), anti-OPA1 monoclonal (1:1000, BD Biosciences, Cat #612606), anti-SDHA monoclonal (1:2500, Abcam, Cat #ab14715), anti-HAX1 polyclonal (1:1000, Proteintech, Cat #11266-1-AP), anti-cytochrome c monoclonal (1:4000, Thermo Fisher Scientific, Cat #BDB556433), anti-caspase-3 monoclonal (1:1000, Proteintech, Cat #66470-2-Ig), anti-cleaved caspase-3 polyclonal (1:1000, Cell Signaling, Cat #9661S), anti-GRP75 monoclonal (1:1000, Santa Cruz, Cat #sc-133137), anti-TOM20 monoclonal (1:500, Santa Cruz, Cat #sc-17764), anti-p53 monoclonal (1:1000, Active Motif North America, Cat #39553), anti-BCL-2 polyclonal (1:200, R&D Systems, Cat #AF810-SP), anti-MCL1 polyclonal (1:1000, Proteintech, Cat #16225-1-AP), anti-BCL-XL monoclonal (1:500, R&D Systems, Cat #MAB894SP), anti-NOXA monoclonal (1:500, Abcam, Cat #ab13654), anti-GAPDH polyclonal (1:10000, Proteintech, Cat #10494-1-AP), anti-LAMIN A polyclonal (1:1000, Santa Cruz, Cat #sc-6214) and anti-ACTIN (1:10000, Millipore, Cat #MAB1501) antibodies. Isotype matched secondary antibodies were conjugated to horseradish peroxidase (GE Healthcare) and chemiluminescence was detected with ECL (Life Technologies) using films. Band densitometric analysis was performed using ImageJ (National Institutes of Health).

[4] = system: human AML cell lines (MOLM-13, KASUMI-1); assay: IC50 curves of AMG176 in combination with Mdivi-1; assay type: cell-based; details: AML cells
[5] = system: AML cells (THP-1, MOLM-13, MV4-11); assay: Mitochondrial membrane potential by TMRM staining; assay type: cell-based, human; details: 16 hrs
Procedure: Mitochondrial Membrane Potential. Mitochondrial membrane potential was monitored cytofluorimetrically using tetramethylrhodamine methyl ester (TMRM). Cells were loaded with 10 nM TMRM in presence of 2 μM Cyclosporin H in Hank's Balanced Salt Solution (HBSS) supplemented with 10 mM HEPES, 30 min at 37° C. When indicated, the experiments were performed in cells pre-treated with Venetoclax for 16 hours at the indicated concentrations.

[6] = system: AML cells (THP-1 and MOLM-13); assay: Electron microscopy-based morphometric analysis of mitochondria; assay type: cell-based, human; details: THP-1 4 μM, MOLM-13 17 nM, 16 hrs
Procedure: Transmission Electron Microscopy. Cultured cells were fixed in 0.1M sodium cacodylate buffer (pH 7.4) containing 2.5% glutaraldehyde and 2% paraformaldehyde for 2 hrs and post-fixed with 1% osmium tetroxide and 1% potassium ferrocyanide for one hour at 4° C. Then block was stained in 0.25% aqueous uranyl acetate, processed in a standard manner and embedded in EMbed 812 (Electron Microscopy Sciences, Hatfield, Pa.). Ultrathin sections (60 nm) were cut, mounted on copper grids and stained with uranyl acetate and lead citrate. Stained grids were examined under Philips CM-12 electron microscope and photographed with a Gatan (4k×2.7k) digital camera. For morphometric analysis, maximal cristae width was measured using Image J (NIH) as shown in FIG. 4A in at least 50 randomly selected mitochondria from a minimum of 15 cells/experiment.

[7] = system: MOLM-13-Par or MOLM-13-VR xenografts; assay: MOLM-13 parental and VR xenografts in NSG mice, Venetoclax by oral gavage; assay type: in vivo, NOD SCID gamma (NSG) mice
Procedure: Animal experiments. For in vivo experiments, Cas9 and luciferase-expressing parental and Venetoclax-resistant MOLM-13 cells were transduced with sgRosa or sgCLPB #1 constructs. At day 2 post-transduction, sgRNA positive cells (GFP) were sorted by FACS. 0.5 million sgRNA-expressing leukemia cells were intravenously injected into recipient NSG mice. For experiments that required drug administration, recipient mice were treated with vehicle or Venetoclax (100 mg/kg, Selleckchem) daily by oral gavage from day 6 to day 20. Venetoclax was prepared in 10% ethanol, 30% polyethyleneglycol-400 (Sigma), and 60% phosal 50 propylene glycol (Lipoid). Whole-body bioluminescent imaging was performed at indicated time points by intraperitoneally injection of Luciferin (Goldbio) at a 50 mg/kg concentration and imaging was performed after 5 mins using an IVIS imager. Bioluminescent signals (radiance) were quantified using Living Image software with standard regions of interests (ROI) rectangles. Peripheral blood of recipient NSG mice was collected at indicated time points after transplantation, and sgRNA positive cells (GFP+) were analyzed by flow cytometry. All animal experiments were performed in accordance with protocols approved by the New York University Institutional Animal Care and Use Committee (IACUC, ID: IA16-00008_TR1).
Animals. […]

AML patients = details: cited from earlier work
[8] = system: Venetoclax-resistant (VR) MOLM-13 and MV4-11 cells; assay: Venetoclax IC50 in parental versus Venetoclax-resistant (VR) AML cell lines; assay type: cell-based, human
Procedure: For the generation of the Venetoclax-resistant cell lines, MOLM-13 and MV4-11 were cultured in media containing increasing doses of Venetoclax (from 5 nM to 1000 nM) for more than 8 weeks to achieve complete resistance to the drug.
as §1

## CO[C@H]1/C=C/C[C@H](C)[C@@H](C)S(=O)(=O)NC(=O)c2ccc3c(c2)N(C[C@@H]2CC[C@H]21)C[C@@]1(CCCc2cc(Cl)ccc21)CO3 [AMG176, (3′R,4S,6′R,7′S,8′E,11′S,12′R)-7-chloro-7′-methoxy-11′,12′-dimethyl-13′,13′-dioxospiro[2,3-dihydro-1H-naphthalene-4,22′-20-oxa-13λ6-thia-1,14-diazatetracyclo[14.7.2.03,6.019,24]pentacosa-8,16(25),17,19(24)-tetraene]-15′-one]
AML cells; MOLM-13 and KASUMI-1 with sgCLPB, 22 hrs
  Apoptosis induced by AMG176 upon CLPB depletion: enhances the apoptosis

## CCN(CC)CCCC(C)Nc1ccnc2cc(Cl)ccc12 (stereo not drawn) [Chloroquine, N′-(7-chloroquinolin-4-yl)-N,N-diethylpentane-1,4-diamine]
[1]
  IC50 of chloroquine upon addition of Venetoclax plus Azacitidine: vice versa

## Nc1ccn([C@@H]2O[C@H](CO)[C@@H](O)[C@@H]2O)c(=O)n1 [Cytarabine, 4-amino-1-[(2R,3S,4S,5R)-3,4-dihydroxy-5-(hydroxymethyl)oxolan-2-yl]pyrimidin-2-one]
[2]
  Synergistic effect of CLPB ablation with the drug: no synergistic effect

## CC(=O)[C@]1(O)Cc2c(O)c3c(c(O)c2[C@@H](O[C@H]2C[C@H](N)[C@H](O)[C@H](C)O2)C1)C(=O)c1ccccc1C3=O [Idarubicin, (7S,9S)-9-acetyl-7-{[(2R,4S,5S,6S)-4-amino-5-hydroxy-6-methyloxan-2-yl]oxy}-6,9,11-trihydroxy-5,7,8,9,10,12-hexahydrotetracene-5,12-dione]
[2]
  Synergistic effect of CLPB ablation with the drug: no synergistic effect
[3]
  CLPB protein levels in cells surviving drug treatment: did not lead to increase of CLPB protein levels

## Cc1sc2c(c1C)C(c1ccc(Cl)cc1)=N[C@@H](CC(=O)OC(C)(C)C)c1nnc(C)n1-2 [JQ-1]
[2]
  Synergistic effect of CLPB ablation with the drug: no synergistic effect

## COc1cc(-n2c(=S)[nH]c3ccccc3c2=O)c(Cl)cc1Cl [Mdivi-1, 3-(2,4-dichloro-5-methoxyphenyl)-2-sulfanylidene-1H-quinazolin-4-one]
[4]
  Combination effect with AMG176: synergistic effects with AMG176

## CC1(C)CCC(CN2CCN(c3ccc(C(=O)NS(=O)(=O)c4ccc(NCC5CCOCC5)c([N+](=O)[O-])c4)c(Oc4cnc5[nH]ccc5c4)c3)CC2)=C(c2ccc(Cl)cc2)C1 [Venetoclax, 4-[4-[[2-(4-chlorophenyl)-4,4-dimethylcyclohexen-1-yl]methyl]piperazin-1-yl]-N-[3-nitro-4-(oxan-4-ylmethylamino)phenyl]sulfonyl-2-(1H-pyrrolo[2,3-b]pyridin-5-yloxy)benzamide]
[5]; AML cells lacking CLPB versus control
  Mitochondrial depolarization in CLPB-knockout cells (TMRM): more prone to Venetoclax-induced mitochondrial depolarization
[5]; THP-1 4 μM, MOLM-13 35 nM
  Mitochondrial membrane potential (TMRM): depolarization of mitochondria
[2]; CLPB sgRNAs versus sgRosa, all the cell lines tested, 48 hours
  Venetoclax IC50 upon CLPB depletion: significantly reduced the IC50
[2]; KASUMI-1 and MOLM-13 cells, 48 hours, Cell-TiterGlo
  Venetoclax half maximal inhibitory concentration (IC50) upon deletion of BAX and PMAIP1: significant increase
[2]; p53-KO clones B10 and B11, sgCLPB #1, 48 hours
  Sensitivity of p53-deficient MOLM-13 to Venetoclax upon CLPB depletion: fully re-sensitize p53-deficient MOLM-13 to Venetoclax treatment
[2]; p53 wild-type MOLM-13 and p53-mutant KASUMI-1, 48 hours
  Venetoclax IC50 with TP53 sgRNAs: increased the Venetoclax IC50 in p53 wild-type MOLM-13 but not p53-mutant KASUMI-1
[3]; MOLM-13 35 nM, THP-1 4 μM, 16 hrs
  Caspase-3 activation in AML cells lacking CLPB relative to wild-type: prevalent caspase-3 activation
[3]
  CLPB protein levels in cells surviving drug treatment: significant increase in the CLPB protein
[3]; THP-1, 4 μM, 16 hrs
  Caspase-3 cleavage: caspase activation
  OPA1 long and short forms (western blot): decrease in the long (L-OPA1) forms and accumulation of short (S-OPA1) forms of OPA1
[6]
  Mitochondrial ultrastructure after treatment: abnormal ultrastructure after Venetoclax treatment, characterized by a lower number of cristae and increase of the cristae lumen width
[7]; 100 mg/kg daily oral gavage day 6 to day 20
  Synergy of CLPB deletion with Venetoclax in vivo (bioluminescence, circulating GFP+ leukemic cells): synergizes efficiently with Venetoclax in both Venetoclax-sensitive and resistant xenografts
[7]; sorted GFP+ sgRosa leukemia cells from bone marrow
  CLPB and OPA1 protein levels in wild-type tumors at late stages versus vehicle-treated mice: significantly elevated CLPB and OPA1 protein levels
AML patients; Venetoclax with hypomethylating agents or low dose cytarabine
  Patients that do not respond upfront: approximately 30%
AML patients; monotherapy
  Response rates, single-agent Venetoclax in AML: modest and rather short-lived
[8]; MOLM-13 and MV4-11 VR versus parental
  Increase of Venetoclax concentration required for the 50% cell death in VR cell lines in respect to the original clones (Par.): more than 100 fold
[8]; VR MOLM-13 and MV4-11 with CLPB sgRNAs
  Sensitivity of VR cells to Venetoclax upon ablation of CLPB: significantly re-sensitized VR cells
AML cells; AML cells, 16 hrs
  Cell death by Annexin-V staining: cell death
AML cells; THP-1, 4 μM, 16 hrs
  Cell death induced by Venetoclax upon depletion of OPA1: enhances cell death
AML cells; puromycin-selected AML cells, 16 hrs
  Annexin-V cell death in cells transduced with sgRNAs targeting CLPB versus negative controls: hypersensitivity of these cells to Venetoclax
